Laboratory results reported in patent publication US20060100180A1, “Composition containing an androgenous 11b-halogen steroid and a progestational hormone, and male contraceptive based on said composition” (priority 2002, published 2006).

Key:
[1] = effectiveness compared with testosterone; settings: more effective than testosterone
[2] = cited from earlier work

Compound	effectiveness relative to testosterone [1]	biological effectiveness compared with testosterone [2]
C[C@@H]1CC2=CC(=O)CC[C@@H]2[C@@H]2[C@@H]1[C@@H]1CC[C@H](O)[C@@]1(C)C[C@@H]2F [Compound A, 11β-fluoro-17β-hydroxy-7α-methyl-estr-4-en-3-one]	about 10 ×	
C[C@@H]1CC2=CC(=O)CC[C@@H]2[C@H]2CC[C@]3(C)[C@@H](O)CC[C@H]3[C@@H]21 [7α-methyl-19-nortestosterone]		higher biological effectiveness than testosterone
